Test results reported in patent publication US9399646B2 (Genentech, Inc., priority 2010, dated 2016).

Experiments:
MCF-7 cells = test: Breast cancer cell viability assay (CellTiter-Glo, 5 days); type: cell-based; settings: 5 days' compound exposure; for IC50: Homo sapiens, MCF7, 120 h
Method in brief: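 MCF-7 cells, 320 per well in RPMI with 10% FBS and 20 mM HEPES, adhered overnight, then exposed 5 days to an eleven-point semilog dilution (final 0.3-0.000003 μM). CellTiter-Glo luminescence read; % viability = (sample − cell-free background)/(untreated − background) × 100.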

ER-α in MCF-7 cells = molecular target: T1, ER-α in MCF-7 cells (Homo sapiens, UniProt P03372); test: Breast cancer cell ER-α in cell western assay (SP1); type: cell-based; parameters: endogenous in cells; host or cells: MCF-7; settings: 4 or 24 hr post compound addition; for Emax: MCF7, SP1 antibody, read-out: ER-α In Cell Western Assay (SP1) Max Response; for DC50: SP1 antibody, read-out: ER-α In Cell Western Assay (SP1) IC50
T1 sequence (P03372 1-595): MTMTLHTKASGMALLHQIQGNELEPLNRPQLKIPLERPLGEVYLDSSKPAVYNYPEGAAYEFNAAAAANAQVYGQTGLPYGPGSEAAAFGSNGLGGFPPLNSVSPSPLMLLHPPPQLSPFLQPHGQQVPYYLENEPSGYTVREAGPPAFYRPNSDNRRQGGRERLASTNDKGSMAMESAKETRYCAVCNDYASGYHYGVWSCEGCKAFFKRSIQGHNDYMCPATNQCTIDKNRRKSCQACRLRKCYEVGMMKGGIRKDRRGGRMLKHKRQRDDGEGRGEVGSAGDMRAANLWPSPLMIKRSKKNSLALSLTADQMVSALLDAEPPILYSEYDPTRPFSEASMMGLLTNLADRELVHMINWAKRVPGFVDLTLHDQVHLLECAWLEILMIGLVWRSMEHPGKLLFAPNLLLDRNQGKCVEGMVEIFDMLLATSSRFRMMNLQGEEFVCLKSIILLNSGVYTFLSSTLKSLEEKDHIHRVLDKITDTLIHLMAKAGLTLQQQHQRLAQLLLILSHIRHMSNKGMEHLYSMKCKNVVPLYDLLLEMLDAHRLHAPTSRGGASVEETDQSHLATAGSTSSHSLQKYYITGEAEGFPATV
Method in brief: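 ER-α protein levels were measured in MCF-7 cells after 4 or 24 hr compound exposure (final 0.3–0.000003 μM) in RPMI containing 10% charcoal-stripped FBS.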

IC50 (MCF-7 cells) [nM]	Emax (ER-α in MCF-7 cells) [%]	DC50 (ER-α in MCF-7 cells) [nM]	Structure (SMILES)	MCF7 Viability Assay Max Response (MCF-7 cells)
> 100	≥ 40	> 100	CC/C(=C(/c1ccc(/C=C/C(=O)O)cc1)c1ccc2c(c1)SCC(=O)N2)c1ccccc1 [Compound 103, (E)-3-(4-((E)-1-(3-Oxo-3,4-dihydro-2H-benzo[b][1,4]thiazin-7-yl)-2-phenylbut-1-en-1-yl)phenyl)acrylic acid]	++ (++ = a single % value ≧ 40%)
≤ 100	≥ 40	≤ 100	CC/C(=C(/c1ccc(/C=C/C(=O)O)cc1)c1ccc2[nH]ncc2c1)c1cccc(OCCOC)c1 [Compound 341, (E)-3-(4-((E)-1-(1H-Indazol-5-yl)-2-(3-(2-methoxyethoxy)phenyl)but-1-en-1-yl)phenyl)acrylic acid]	++ (++ = a single % value ≧ 40%)
> 100	≥ 40	≤ 100	CC/C(=C(/c1ccc(/C=C/C(=O)O)cc1)c1ccc2scnc2c1)c1ccc(F)cc1 [Compound 281, (E)-3-(4-((E)-1-(Benzo[d]thiazol-5-yl)-2-(4-fluorophenyl)but-1-en-1-yl)phenyl)acrylic acid]	++ (++ = a single % value ≧ 40%)
≤ 100	≥ 40	≤ 100	CC/C(=C(/c1ccc(/C=C/C(=O)O)cc1)c1ccc2scnc2c1)c1ccccc1C [Compound 283, (E)-3-(4-((E)-1-(Benzo[d]thiazol-5-yl)-2-(o-tolyl)but-1-en-1-yl)phenyl)acrylic acid]	++ (++ = a single % value ≧ 40%)
> 100	≥ 40	≤ 100	CC/C(=C(/c1ccc(/C=C/C(=O)O)cc1)c1ccc2[nH]ncc2c1)c1ccc(-c2cnccn2)cc1 [Compound 389, (E)-3-(4-((E)-1-(1H-Indazol-5-yl)-2-(4-(pyrazin-2-yl)phenyl)but-1-en-1-yl)phenyl)acrylic acid]	++ (++ = a single % value ≧ 40%)
≤ 100	≥ 40	≤ 100	CC/C(=C(/c1ccc(/C=C/C(=O)O)cc1)c1ccc2nn(C(F)F)cc2c1)c1ccc(F)cc1Cl [Compound 402, (E)-3-(4-((E)-2-(2-Chloro-4-fluorophenyl)-1-(2-(difluoromethyl)-2H-indazol-5-yl)but-1-en-1-yl)phenyl)acrylic acid]	++ (++ = a single % value ≧ 40%)
≤ 100	≥ 40	≤ 100	CC/C(=C(/c1ccc(/C=C/C(=O)O)cc1)c1coc2ccccc12)c1ccc(F)cc1Cl [Compound 170, (E)-3-(4-((E)-1-(Benzofuran-3-yl)-2-(2-chloro-4-fluorophenyl)but-1-en-1-yl)phenyl)acrylic acid]	++ (++ = a single % value ≧ 40%)
> 100	≥ 40	> 100	CC/C(=C(/c1ccc(/C=C/C(=O)O)cc1)c1ccc2[nH]ncc2c1)c1ccc(C(=O)N(C)C)cc1F [Compound 212, (E)-3-(4-((E)-2-(4-(Dimethylcarbamoyl)-2-fluorophenyl)-1-(1H-indazol-5-yl)but-1-en-1-yl)phenyl)acrylic acid]	++ (++ = a single % value ≧ 40%)
> 100	≥ 40	> 100	CC/C(=C(/c1ccc(/C=C/C(=O)O)cc1)c1ccc2[nH]ncc2c1)c1cccc(OCCCCC(=O)O)c1 [Compound 352, 5-(3-((E)-1-(4-((E)-2-Carboxyvinyl)phenyl)-1-(1H-indazol-5-yl)but-1-en-2-yl)phenoxy)pentanoic acid]	+ (+ = a single % value < 40%)
≤ 100	≥ 40	≤ 100	CC/C(=C(/c1ccc(/C=C/C(=O)Nc2nn[nH]n2)cc1)c1ccc2[nH]ncc2c1)c1ccc(F)cc1Cl [Compound 425, (E)-3-(4-((E)-2-(2-Chloro-4-fluorophenyl)-1-(1H-indazol-5-yl)but-1-en-1-yl)phenyl)-N-(2H-tetrazol-5-yl)acrylamide]	++ (++ = a single % value ≧ 40%)
≤ 100	≥ 40	≤ 100	CC/C(=C(/c1ccc(/C=C/C(=O)O)cc1)c1ccc2[nH]ncc2c1)c1cccc(Oc2ccccc2)c1F [Compound 298, (E)-3-(4-((E)-2-(2-Fluoro-3-phenoxyphenyl)-1-(1H-indazol-5-yl)but-1-en-1-yl)phenyl)acrylic acid]	++ (++ = a single % value ≧ 40%)
≤ 100	≥ 40	≤ 100	CC/C(=C(/c1ccc(/C=C/C(=O)O)cc1)c1ccc2c(c1)CNC2=O)c1ccccc1 [Compound 110, (E)-3-(4-((E)-1-(1-Oxoisoindolin-5-yl)-2-phenylbut-1-en-1-yl)phenyl)acrylic acid]	++ (++ = a single % value ≧ 40%)
> 100	≥ 40	> 100	CC/C(=C(/c1ccc(/C=C/C(=O)O)cc1)c1ccc2[nH]ncc2c1)c1cc2c(s1)CCN(C)C2 [Compound 270, (E)-3-(4-((E)-1-(1H-Indazol-5-yl)-2-(5-methyl-4,5,6,7-tetrahydrothieno[3,2-c]pyridin-2-yl)but-1-en-1-yl)phenyl)acrylic acid]	++ (++ = a single % value ≧ 40%)
> 100	≥ 40	≤ 100	CCCCCOc1ccc(/C(CC)=C(\c2ccc(/C=C/C(=O)O)cc2)c2ccc3[nH]ncc3c2)cc1 [Compound 356, (E)-3-(4-((E)-1-(1H-Indazol-5-yl)-2-(4-(pentyloxy)phenyl)but-1-en-1-yl)phenyl)acrylic acid]	++ (++ = a single % value ≧ 40%)
≤ 100	≥ 40	≤ 100	CC/C(=C(/c1ccc(/C=C/C(=O)O)cc1)c1ccc2[nH]ncc2c1)c1ccc(Oc2cnccn2)cc1 [Compound 293, (E)-3-(4-((E)-1-(1H-Indazol-5-yl)-2-(4-(pyrazin-2-yloxy)phenyl)but-1-en-1-yl)phenyl)acrylic acid]	++ (++ = a single % value ≧ 40%)
≤ 100	≥ 40	≤ 100	CC/C(=C(/c1ccc(/C=C/C(=O)O)cc1)c1ccc2[nH]ncc2c1)c1ccc2occc2c1 [Compound 247, (E)-3-(4-((E)-2-(Benzofuran-5-yl)-1-(1H-indazol-5-yl)but-1-en-1-yl)phenyl)acrylic acid]	++ (++ = a single % value ≧ 40%)
> 100	≥ 40	≤ 100	CC/C(=C(/c1ccc(/C=C/C(=O)O)cc1)c1ccc2[nH]ncc2c1)c1ccc(-c2ccccn2)cc1 [Compound 385, (E)-3-(4-((E)-1-(1H-Indazol-5-yl)-2-(4-(pyridin-2-yl)phenyl)but-1-en-1-yl)phenyl)acrylic acid]	++ (++ = a single % value ≧ 40%)
≤ 100	≥ 40	≤ 100	CC/C(=C(/c1ccc(/C=C/C(=O)O)cc1)c1coc2c(O)cccc12)c1ccccc1 [Compound 451, (E)-3-(4-((E)-1-(7-Hydroxybenzofuran-3-yl)-2-phenylbut-1-en-1-yl)phenyl)acrylic acid]	++ (++ = a single % value ≧ 40%)
≤ 100	≥ 40	≤ 100	CCOC(=O)n1ncc2cc(/C(=C(\CC)c3ccc(F)cc3Cl)c3ccc(/C=C/C(=O)O)cc3)ccc21 [Compound 406, (E)-3-(4-((E)-2-(2-Chloro-4-fluorophenyl)-1-(1-(ethoxycarbonyl)-1H-indazol-5-yl)but-1-en-1-yl)phenyl)acrylic acid]	++ (++ = a single % value ≧ 40%)
≤ 100	≥ 40	≤ 100	CC/C(=C(/c1ccc(/C=C/C(=O)O)cc1)c1ccc2[nH]ncc2c1)c1cccc(Oc2ncccn2)c1 [Compound 363, (E)-3-(4-((E)-1-(1H-Indazol-5-yl)-2-(3-(pyrimidin-2-yloxy)phenyl)but-1-en-1-yl)phenyl)acrylic acid]	++ (++ = a single % value ≧ 40%)
≤ 100	≥ 40	≤ 100	CC/C(=C(/c1ccc(/C=C/C(=O)O)cc1)c1cccc2[nH]ncc12)c1ccc(F)cc1Cl [Compound 30, (E)-3-(4-((E)-2-(2-Chloro-4-fluorophenyl)-1-(1H-indazol-4-yl)but-1-en-1-yl)phenyl)acrylic acid]	++ (++ = a single % value ≧ 40%)
